Laboratory results published in patent US20040170580A1, “Filtering suntan product” (priority 2001, published 2004).

Test system: normal human keratinocyte/melanocyte cocultures
Assay: UV-induced melanogenesis by 14C-thiouracil incorporation related to amount of protein
Assay type: cell-based
Protocol: The protoprotective and propigmenting effect of the combination was tested on normal human keratinocyte/melanocyte cocultures according to the method described in patent FR 95/06491, by evaluating the UV-induced melanogenesis. The rate of melanin synthesis is evaluated through the incorporation of C^14-labeled thiouracil. It is related to the amount of protein.
Normal human keratinocytes (NHKs) and normal human melanocytes (NHMs) are cultured from foreskin. The two types of cell are amplified and stored frozen. Eight days before the test, each of the cell types is again placed in culture. The keratinocytes are cultured according to the method described by Rheinwald and Green (Cell (1975) 6, 331-334) on feeder cells (3T3 fibroblasts) in Green 7F growth medium (DMEM/F12, 3:1, 10% fetal calf serum (Gibco), 0.18 mM adenine, 10 ng/ml epidermal growth factor EGF, 0.4 μg/ml hydrocortisone, 5 μg/ml insulin, 10 μM isoproterenol, 5 μg/ml transferrin and 2 nM triiodothyronine). The melanocytes are amplified in M2 medium (Olsson, M. J. et al., Lancet (1992) 340, 981). The media are changed every two days.
3 days before the test, 250 000 normal human keratinocytes and 80 000 normal human melanocytes are mixed and seeded per well of 24-well plates (Costar type) and cultured for three days in the keratinocyte growth medium (Green 7F) without phenol red. During the following four days, the culture medium is replaced daily with UV medium (DMEM/F12, 3:1, without phenol red, 2% defined calf serum (HyClone), 10 ng/ml EGF, 10 ng/ml fibroblast growth factor type β (βFGF)).
The UV-induction of pigmentation is carried out by solar simulated radiation (SSR) using a 1 000 watt Oriel Xenon solar simulator comprising a 280-400 nm dichroic filter (Oriel, model 81035) and a Schott WG 320 filter having a wavelength cut-off of 311 nm (corresponding to a thickness of approximately 1.5 mm).
The cell cultures are irradiated once a day for 4 days in a phosphate buffer solution (PBS).
The propigmenting molecules are brought into contact with the cells in the PBS during the irradiation and added to the culture medium (UV medium) after irradiation.
The extract of Burnet is tested at 0.005%. It is prepared in a stock solution at 0.5% in a solvent (dimethyl sulfoxide, DMSO), which is added at a 1/1 000 dilution to the PBS and to the UV medium. The final concentration of the solvent in the culture medium is therefore 1/1 000.
The extract of Chrysanthemum sinensis obtained according to protocol Nos. 2+4 is tested at 1%.
The tyrosine, which serves as a positive control, is tested at 500 μM.
The Mexoryl SX® is tested at 8%.
After each exposure to UV radiation, the formulations containing the sunscreen are applied, in the proportion of 1.4 mg/cm^2, to a quartz slide on which there is a Transpore® strip, according to a method derived from that used to determine sun protection indices in vitro, described by Diffey and Robson (J Soc Cosmet Chemists (1989) 300, 230-235). The assembly is placed above the cocultures for the duration of the irradiation.
After irradiation, the cells are incubated in the UV medium containing 1 μCi/ml of C^14-labeled thiouracil.
Measurement of Melanogenesis:
The following controls are realized:
control culture: no product tested […]
24 hours after the final UV irradiation, the cells are rinsed in phosphate buffer. The proteins are precipitated with 5% trichloroacetic acid (TCA) and washed in order to remove the free radioactivity. […]

Row | Compound | % variation in melanin synthesis compared to the control; A = 14CthioU/amount protein (%/control) (SSR irradiation + solvent (DMSO 1/1000), 8% Mexoryl SX formulation on quartz slide above the cocultures, no propigmenting agent) | % variation in melanin synthesis compared to the control; A = 14CthioU/amount protein (%/control) (SSR irradiation once a day for 4 days, 8% Mexoryl SX formulation 1.4 mg/cm2 on quartz slide above the cocultures, no propigmenting agent, no solvent) | % variation in melanin synthesis compared to the control; A = 14CthioU/amount protein (%/control) (SSR irradiation once a day for 4 days, no screening agent, tyrosine 500 μM, extract of Burnet 0.005% (DMSO solvent), extract of Chrysanthemum sinensis 1%) | % variation in melanin synthesis compared to the control; A = 14CthioU/amount protein (%/control) (SSR irradiation screened by 8% Mexoryl SX formulation, in combination with propigmenting agent: tyrosine 500 μM, extract of Burnet 0.005% (DMSO solvent), extract of Chrysanthemum sinensis 1%) | % variation in melanin synthesis compared to the control; A = 14CthioU/amount protein (%/control) (no irradiation, propigmenting agent alone: tyrosine 500 μM, extract of Burnet 0.005% (DMSO solvent 1/1000), extract of Chrysanthemum sinensis 1%)
1 | CC1(C)C2CCC1(CS(=O)(=O)O)C(=O)C2=Cc1ccc(C=C2C(=O)C3(CS(=O)(=O)O)CCC2C3(C)C)cc1 [Mexoryl SX ®] | 36% | 15% |  |  | 
2 | N[C@@H](Cc1ccc(O)cc1)C(=O)O [tyrosine] |  |  | 382% | 74% | 40%
